In US20090124631A1, “Combination Therapy” (priority 2007, published 2009):
One block for each compound: values may come before it.

Key:
[1] = test system: tubulin acetylation in human bladder carcinoma T24 cells; assay: Cell-based ELISA for tubulin acetylation
Experimental: (§1) Bladder carcinoma T24 cells were seeded in black plates with clear bottoms (Costar #3603) at 1×10^4 cells per well in a volume of 100 μl per well, and were allowed to settle for one day at 37° C. in a CO2 incubator. The cells were treated for 16 h with various concentrations of HDAC inhibitors. 3 h before the end of the treatment, Alamar Blue (BioSource) was added to monitor cell viability according to the manufacturer's instructions. At the end of the treatment time, Alamar Blue OD (at 570 nm and 600 nm) was recorded, then the cells were carefully washed in PBS, fixed in pre-chilled methanol for 10 min at −20° C., washed again twice in PBS, and blocked in PBS containing 0.1% Triton X-100 and 1% BSA for a minimum of 30 min. For H3 acetylation, rabbit-anti-acetyl-H3 (Upstate #06-599) was used as primary antibody at a dilution of 1:1000 for 45 min; the secondary antibody was HRP-coupled goat-anti-rabbit (Sigma #A-0545), used at 1:8000 for 45 min. For tubulin acetylation, the primary antibody was mouse anti-acetyl-tubulin (Sigma #T-6793, 1:2000, 45 min) while the secondary was HRP-coupled goat-anti-mouse antibody (Sigma #A-2304, 1:8000, 45 min). All antibodies were diluted in blocking buffer, and the cells were washed in blocking buffer following each antibody incubation. […] The fluorescent signal for acetylation was normalized by dividing with the viability data obtained from Alamar Blue. EC50 was defined as the concentration of compound which gave a signal half-way between the basal (untreated) level and the maximum level generated by high doses of the HDAC pan-inhibitor NVP-LAQ-824.

[2] = test system: bFGF transcription in human prostate cancer Du145 cells; assay: bFGF transcription in Du145 cells in vitro; type: cell-based; details: 3 μM, 24 hour treatment
Experimental: (§2) Human prostate cancer Du145 cells were exposed to Cpd A or SAHA (3 microM) for 24 hours. Total RNA was collected by Isogen (Nippongene, Tokyo, Japan) and reverse-transcribed to cDNA by ExScript® RT reagent Kit (TAKARA, Kyoto, Japan). The expression level of bFGF mRNA was detected by ABI7700 analyzer using probe/primer pre-mixture reagent (ABI, Cat# Hs00266645_m1, CA, USA) and TaqMan® Universal PCR Master Mix (ABI, Cat# 430-4437) as described in the ABI's protocol. The expression level of VEGF mRNA was detected in a similar manner using the appropriate probe/primer reagents.

[3] = test system: VEGF expression in DU145 cells; assay: VEGF transcription in Du145 cells in vitro; type: cell-based, human; details: 24 hour treatment
Experimental: as §2

H460 (NSCLC) xenografts = assay: H460 (NSCLC) xenograft, oral HDAC inhibitor with taxol; type: in vivo, mouse; details: Compound A 100 mg/kg or SAHA 120 mg/kg with taxol 60 mg/kg
Experimental: (§3) Antitumor studies were done using human H460 non-small cell lung tumor, Du145 prostate tumor, TSU-Pr1 prostate tumor, and AZ521 gastric tumor xenograft model in male BALBc/A nude mice (from Japan Crea Inc., Japan). Male nude mice were used at age 8-10 weeks. Human carcinoma cells were injected subcutaneously in the animal flank and allowed to form solid tumors. Tumor fragments (about 2 mm^3 fragments) were then removed and implanted subcutaneously through a small surgical incision to the right flank of other animals. […] Tumor volumes and gross body weight of animals were monitored twice weekly for up to 2 weeks for AZ-521 and TSU-Pr1, or 4 weeks for H460 and Du145 xenografts. Each experimental group contained 6 animals.

[4] = test system: TSP-1 expression in cancer cells (Du145, H460, A549); assay: TSP-1 transcription in cancer cells in vitro; type: cell-based, human; details: over time, 3 microM, 24 hours
Experimental: Cells were exposed by Cpd A or SAHA (3 microM) for 24 hours. Total RNA was collected by Isogen (Nippongene, Tokyo, Japan) and reverse-transcribed to cDNA by ExScript® RT reagent Kit (TAKARA, Kyoto, Japan). The expression level of TSP-1 mRNA was detected by ABI7700 analyzer using a probe/primer pre-mixture reagent (ABI, Cat#, CA, USA) and TaqMan® Universal PCR Master Mix (ABI, Cat# 430-4437) as described in the ABI's protocol.

[5] = test system: histone H3 acetylation in human bladder carcinoma T24 cells; assay: Cell-based ELISA for H3 acetylation
Experimental: as §1

[6] = test system: human H460 non-small cell lung tumor, Du145 prostate tumor, TSU-Pr1 prostate tumor, and AZ521 gastric tumor xenograft; assay: Xenograft combination studies with taxol (Example 15); type: in vivo, mouse; details: oral administration, nude mice with human lung, prostate and gastric tumors
Experimental: as §3

[7] = test system: mouse endothelial MS-1 cells; assay: Growth inhibition of MS-1 cells by taxol with recombinant TSP-1; type: cell-based; details: recombinant TSP1 10 ug/ml, 72 hour
Experimental: Mouse endothelial MS-1 cells were seeded into 96 well-plate and incubated in 5% CO2 incubator for 24 hours. Taxol at various concentrations was added into cell culture and 6 hours later media were replaced with fresh media containing recombinant TSP1 (10 ug/ml) but without taxol. After 72 hour incubation, the growth inhibitory effect was determined by crystal violet staining.

HDAC2 = target: T1, HDAC2 (Homo sapiens, UniProt Q92769); assay: Fluorescence-based HDAC enzyme assay, recombinant HDAC2; type: biochemical; details: recombinant human HDAC enzyme in vitro; read-out: IC50 (μM) HD2
T1 construct: cDNAs corresponding to the full length human HDAC1, 2, 3 and 11 were cloned into pBlueBac4.5 vector; FLAG (C); made in house; host or cells: Sf-9 insect cells (baculovirus)
T1 sequence (Q92769 whole entry): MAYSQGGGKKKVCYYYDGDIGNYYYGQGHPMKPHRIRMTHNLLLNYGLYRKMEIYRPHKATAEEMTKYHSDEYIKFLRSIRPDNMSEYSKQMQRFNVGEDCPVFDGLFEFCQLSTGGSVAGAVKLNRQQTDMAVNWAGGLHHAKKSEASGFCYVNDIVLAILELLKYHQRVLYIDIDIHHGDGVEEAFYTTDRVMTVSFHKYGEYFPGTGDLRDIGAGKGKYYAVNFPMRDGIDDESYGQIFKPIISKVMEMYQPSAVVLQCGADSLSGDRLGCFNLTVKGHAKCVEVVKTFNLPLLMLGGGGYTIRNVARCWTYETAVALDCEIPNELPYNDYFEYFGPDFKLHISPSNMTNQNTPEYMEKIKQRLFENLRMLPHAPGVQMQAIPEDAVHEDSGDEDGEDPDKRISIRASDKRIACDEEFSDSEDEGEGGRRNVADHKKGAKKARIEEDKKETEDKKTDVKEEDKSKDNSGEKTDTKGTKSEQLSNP
Excerpt: (§4) cDNAs of human HDAC1-8 and 11 were generated by RT-PCR reactions using primers complementary to the 5′ and 3′ coding sequence of human HDAC gene sequences in GenBank. cDNAs corresponding to the full length human HDAC1, 2, 3 and 11 were cloned into pBlueBac4.5 vector (Invitrogen). The constructs were used to generate recombinant baculoviruses using the Bac-N-Blue™ DNA according to the manufacturer's instructions (Invitrogen). The recombinant HDAC1, 2, 3, 11 proteins produced harbor a FLAG tag at their C-termini. cDNAs encoding truncated versions of HDAC4, 5 and 7 encompassing their deacetylase domains were cloned into pDEST10 as an N-terminal hexahistidine fusion protein and recombinant baculoviruses were generated using the Bac-to-Bac™ Baculovirus expression system (Invitrogen). HDAC6 and 8 were cloned as full length N-terminally His-tagged protein. All HDAC proteins were expressed in insect Sf-9 cells (Spodoptera frugiperdai) upon infection with recombinant baculovirus. HDAC1 enzyme was purified from the Q-sepharose FF column (Amersham Pharmacia Biotech, Baie d'Urfe QC, Canada) followed by an anti-FLAG immunoaffinity column (Sigma). […] HDAC4, 5, 6, 7 and 8 were purified using either Ni-NTA resin (QIAGEN Mississauga ON, Canada) or His-Select resin (Sigma) with step washes and elution with different concentrations of imidazole in Buffer containing 25 mM Tris (or NaPO4) pH 8.0, 10% glycerol and 150 mM or 500 mM NaCl.
(§5) Boc-Lys(Ac)-AMC (for HDAC1, 2, 3, 6, and 8 enzymes), which was purchased from Bachem Biosciences Inc., (King of Prussia, Philadelphia) were added into enzyme-compound mixture and incubated at 37° C. For HDAC4, 5, 7 assays, Boc-Lys(TFA)-AMC, which was synthesized in house, was used as substrate and 0.1% BSA was added to the buffer. […] Reaction time was predetermined to ensure that reaction was linear for the incubation time. Reaction was stopped by adding a freshly prepared trypsin (1 mg/ml final concentration) with 1 μM TSA (Biomol) in assay buffer. After 30 minutes, fluorescence was measured using a fluorometer (SPECTRAMAX GeminiXS, Molecular Devices, Sunnylvale, Calif.).

HDAC3 = target: T2, HDAC3 (Homo sapiens, UniProt O15379); assay: Fluorescence-based HDAC enzyme assay, recombinant HDAC3; type: biochemical; details: recombinant human HDAC enzyme in vitro; read-out: IC50 (μM) HD3
T2 construct: cDNAs corresponding to the full length human HDAC1, 2, 3 and 11 were cloned into pBlueBac4.5 vector; FLAG (C); made in house; host or cells: Sf-9 insect cells (baculovirus)
T2 sequence (O15379 whole entry): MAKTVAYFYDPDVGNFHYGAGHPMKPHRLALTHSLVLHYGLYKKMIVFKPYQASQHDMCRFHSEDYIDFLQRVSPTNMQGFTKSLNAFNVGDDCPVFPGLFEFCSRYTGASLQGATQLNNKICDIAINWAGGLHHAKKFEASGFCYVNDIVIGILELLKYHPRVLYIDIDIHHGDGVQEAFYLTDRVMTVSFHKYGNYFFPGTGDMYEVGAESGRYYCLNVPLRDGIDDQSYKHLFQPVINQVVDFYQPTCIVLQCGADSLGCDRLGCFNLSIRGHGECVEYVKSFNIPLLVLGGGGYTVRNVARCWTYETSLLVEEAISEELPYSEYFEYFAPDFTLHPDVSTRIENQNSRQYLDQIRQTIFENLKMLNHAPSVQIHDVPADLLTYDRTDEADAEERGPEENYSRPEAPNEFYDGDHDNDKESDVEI
Excerpt: cDNAs of human HDAC1-8 and 11 were generated by RT-PCR reactions using primers complementary to the 5′ and 3′ coding sequence of human HDAC gene sequences in GenBank. cDNAs corresponding to the full length human HDAC1, 2, 3 and 11 were cloned into pBlueBac4.5 vector (Invitrogen). The constructs were used to generate recombinant baculoviruses using the Bac-N-Blue™ DNA according to the manufacturer's instructions (Invitrogen). The recombinant HDAC1, 2, 3, 11 proteins produced harbor a FLAG tag at their C-termini. cDNAs encoding truncated versions of HDAC4, 5 and 7 encompassing their deacetylase domains were cloned into pDEST10 as an N-terminal hexahistidine fusion protein and recombinant baculoviruses were generated using the Bac-to-Bac™ Baculovirus expression system (Invitrogen). HDAC6 and 8 were cloned as full length N-terminally His-tagged protein. All HDAC proteins were expressed in insect Sf-9 cells (Spodoptera frugiperdai) upon infection with recombinant baculovirus. HDAC1 enzyme was purified from the Q-sepharose FF column (Amersham Pharmacia Biotech, Baie d'Urfe QC, Canada) followed by an anti-FLAG immunoaffinity column (Sigma). HDAC2, 3 and 11 were purified using Flag-antibody immunoaffinity purification. HDAC4, 5, 6, 7 and 8 were purified using either Ni-NTA resin (QIAGEN Mississauga ON, Canada) or His-Select resin (Sigma) with step washes and elution with different concentrations of imidazole in Buffer containing 25 mM Tris (or NaPO4) pH 8.0, 10% glycerol and 150 mM or 500 mM NaCl.
Recombinant HDAC enzymes were incubated with diluted compounds in assay buffer (25 mM Hepes, pH 8.0, 137 mM NaCl, 1 mM MgCl2 and 2.7 mM KCl) for 10 minutes at ambient temperatures in black 96-well plate. Boc-Lys(Ac)-AMC (for HDAC1, 2, 3, 6, and 8 enzymes), which was purchased from Bachem Biosciences Inc., (King of Prussia, Philadelphia) were added into enzyme-compound mixture and incubated at 37° C. […] After 30 minutes, fluorescence was measured using a fluorometer (SPECTRAMAX GeminiXS, Molecular Devices, Sunnylvale, Calif.). […]

[8] = test system: recombinant human HDAC enzymes; assay: HDAC isotype selectivity across recombinant HDAC enzymes; type: biochemical; details: from Table 1
Excerpt: as §4, §5

HDAC1 = target: T3, HDAC1 (Homo sapiens, UniProt Q13547); assay: Fluorescence-based HDAC enzyme assay, recombinant HDAC1; type: biochemical; details: recombinant human HDAC enzyme in vitro; read-out: IC50 (μM) HD1
T3 construct: cDNAs corresponding to the full length human HDAC1, 2, 3 and 11 were cloned into pBlueBac4.5 vector; FLAG (C); made in house; host or cells: Sf-9 insect cells (baculovirus)
T3 sequence (Q13547 whole entry): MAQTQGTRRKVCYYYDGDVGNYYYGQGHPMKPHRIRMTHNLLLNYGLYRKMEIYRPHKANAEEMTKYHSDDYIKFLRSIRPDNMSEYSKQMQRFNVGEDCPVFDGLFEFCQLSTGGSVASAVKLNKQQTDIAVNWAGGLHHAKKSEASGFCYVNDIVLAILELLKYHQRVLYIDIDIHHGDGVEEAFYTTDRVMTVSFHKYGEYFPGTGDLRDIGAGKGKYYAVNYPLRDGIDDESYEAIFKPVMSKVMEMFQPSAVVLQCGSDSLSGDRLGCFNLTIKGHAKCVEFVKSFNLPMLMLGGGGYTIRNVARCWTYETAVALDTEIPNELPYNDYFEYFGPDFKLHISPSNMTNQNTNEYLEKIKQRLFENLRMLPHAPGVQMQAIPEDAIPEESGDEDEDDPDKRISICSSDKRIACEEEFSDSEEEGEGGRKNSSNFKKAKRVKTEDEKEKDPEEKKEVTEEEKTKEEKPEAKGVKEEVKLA
Excerpt: as §4, §5

Compound: O=C(CCCCCCC(=O)Nc1ccccc1)NO [SAHA, reference compound]
tubulin acetylation [1]: Nonselective effect
bFGF transcription [2]: Reduction
VEGF expression [3]: Reduction
tumor response to combination therapy with taxol (H460 (NSCLC) xenografts): tumor regression
TSP-1 expression [4]: Induction
histone H3 acetylation [5]: Nonselective effect
antitumor activity of taxol [6]: Potentiation

Compound: Recombinant TSP-1: recombinant thrombospondin-1, agonist of TSP1 receptor
proapoptotic effect of taxol [7]: Potentiates

Compound: O=C(/C=C/c1ccc(CN(CCO)CCc2c[nH]c3ccccc23)cc1)NO [NVP-LAQ824]
tubulin acetylation [1]: Nonselective effect
histone H3 acetylation [5]: Nonselective effect

IC50 (HDAC2): > 10 µM
IC50 (HDAC3): > 10 µM
HDAC isotype selectivity [8]: inactive
IC50 (HDAC1): > 10 µM
Compound: O=C(Nc1ccccc1)c1ccc(CNc2nccc(-c3cccnc3)n2)cc1 [Compound C]
